Reference: patent publication US7291451B2, “Modulation of pericyte proliferation” (XOMA Technology Ltd., priority 2000, dated 2007)
Where “and” joins values, the source holds several entries; their conditions need not be identical. Identical values can stand only once. Entries after “also recorded” stand apart in the source; their conditions may differ. One block for each molecule: values may come before it.

Experiments:
[1] = test system: human retinal pericytes (HRPC); test: Human retinal pericyte proliferation assay (Methylene blue, OD650); format: cell-based; details: for HRPC proliferation: initial experiment, treated once, medium not changed; for toxicity on HRPC: initial assay
Protocol: In addition to studies with primary cell cultures of bovine retinal pericytes described above, experiments were performed with a human cell line obtained from Clonetics (San Diego, Calif.) of retinal pericytes (catalog no. CC-2542 PyCRt). These human retinal pericytes (HRPC) were cultured in Dulbecco's modified Eagle's medium (DMEM, Gibco BRL, Grand Island, N.Y.) with 5.6 mM glucose and 20% fetal bovine serum (FBS, Gibco BRL, Grand Island, N.Y.).
Proliferation assays were performed as follows: HRPC were plated onto 24-well culture plates (3000 cells/well) in 5 or 10% FBS-DMEM with 5.6 mM glucose and incubated overnight. The cells were treated once with vehicle alone or with vehicle and several concentrations of XMP.627 ([SEQ ID NO: 4]), XMP.664 ([SEQ ID NO: 5]), XMP.679 ([SEQ ID NO: 3]), or XMP.728 ([SEQ ID NO: 6]) for 5 or 6 days. The medium was not changed, nor were additional amounts of test compounds added as described in the experiments of part A above. The cells were fixed and stained with Methylene blue and proliferation assayed by observation at OD650.

[2] = test system: bovine retinal endothelial cells (BREC); test: Cell growth assay (DNA content) in bovine retinal endothelial cells; format: cell-based
Protocol: Primary cultures of bovine retinal endothelial cells (BREC) were isolated by homogenization and a series of filtration steps as described in King et al., J. Clin. Invest., 1985, 75:1028-36. BREC were subsequently cultured with endothelial cell basal medium (EBM; Clonetics, San Diego, Calif.). supplemented with 10% plasma-derived horse serum (PDHS), 50 mg/l heparin, and 50 μg/ml endothelial cell growth factor (ECGF, Roche, Indianapolis, Ind.). Cells were characterized for homogeneity by their immunoreactivity with anti-factor VIII antibody. Cells remained morphologically unchanged under these conditions, as confirmed by light microscopy. Only cells from passages 2 through 7 were used for the experiments.
(§1) A cell growth assay was performed as follows: Cells were plated onto 12-well culture plates and incubated overnight. The cells were treated with vehicle, vascular endothelial growth factor (VEGF, R & D Systems, Minneapolis, Minn.) at 25 ng/ml, serum, compounds, or combinations thereof. The medium is changed during the incubation period, with fresh medium and fresh test compound added every 2 days. After incubation for indicated time period at 37° C., the cells were lysed in 0.1% SDS and DNA content was measured by means of Hoechst-33258 dye and a fluorometer (model TKO-100, Hoefer Scientific Instruments, San Francisco, Calif.). It has been shown that total cellular DNA content measured in this manner correlates closely with actual cell number as determined by hemocytometer counting of trypsinized cells.
(§2) Determinations were performed in triplicate and all experiments were repeated at least three times. Results are expressed as the mean ±standard deviation, unless otherwise indicated. Statistical analysis employed Student's t-test or analysis of variance to compare quantitative data populations with normal distributions and equal variance. Data were analyzed using the Mann-Whitney rank sum test or the Kruskal-Wallis test for populations with non-normal distributions or unequal variance. A P-value of <0.05 was considered statistically significant.

[3] = test system: bovine retinal pericytes (BRPC); test: Cell growth assay (DNA content, cell number) in bovine retinal pericytes; format: cell-based
Protocol: as §1, §2
Primary cultures of bovine retinal pericytes (BRPC) were isolated by homogenization and a series of filtration steps as described in King et al., J. Clin. Invest., 1985, 75:1028-36. BRPC were cultured in Dulbecco's modified Eagle's medium (DMEM, Gibco BRL, Grand Island, N.Y.) with 5.5 mM glucose and 20% fetal bovine serum (FBS, Gibco BRL, Grand Island, N.Y.). Cells were characterized for homogeneity by their immunoreactivity with monoclonal antibody 3G5 [Nayak et al., J. Exp. Med. 1988, 167:1003-15]. Cells remained morphologically unchanged under these conditions, as confirmed by light microscopy. Only cells from passages 2 through 7 were used for the experiments.
A cell growth assay was performed as described above in Example 1 and the medium was changed, with fresh medium and fresh test compound added every 2 or 3 days, preferably every 2 days. […] At 20% FBS a six to seven fold increase of total DNA was detected.

[4] = test system: MAP kinase phosphorylation; test: MAP kinase phosphorylation in BRPC; format: cell-based, bovine; details: 75 μg/ml
Protocol: Experiments were also performed in which the level of MAP kinase phosphorylation was determined in BRPC treated with 75 μg/ml rBPI21 or 5 μg/ml XMP.679. […] These observations indicate that exemplary BPI protein products rBPI21 and, to a lesser extent, XMP.679, enhance MAP kinase phosphorylation in BRPC.

[5] = test system: Bovine retinal pigment epithelial cells (RPEC); test: Cell growth assay in bovine retinal pigment epithelial cells; format: cell-based; details: 75 μg/ml
Protocol: as §1
Bovine retinal pigment epithelial cells (RPEC) were isolated by gentle scraping after removal of the neural retina and incubation with 0.2% collagenase as described in King et al., Diabetes, 1987, 36:1460-7. RPEC were cultured in DMEM with 5.5 mM glucose and 10% calf serum (CS, Gibco BRL, Grand Island, N.Y.). Cells were cultured in 5% CO2 at 37° C., and media were changed every other days. Cells were characterized for their homogeneity by immunoreactivity with anti-cytokeratin antibody for RPEC. […]

Molecule: XMP.852: BPI protein product, SEQ ID NO: 8 (KLFRAQ; XMP.852; listed as Homo sapiens)
- HRPC proliferation [1]: little or no proliferation

Molecule: XMP.627: BPI-derived peptide, SEQ ID NO: 4 (KLFRAQAKAKG; XMP.627; listed as Homo sapiens)
- concentration of maximum HRPC proliferation ([1]; 5% FBS): approximately 5 μg/ml
- effect on HRPC proliferation ([1]; 10% FBS): did increase HRPC proliferation
- effect on HRPC growth ([1]; above 10 μg/ml, 5% FBS): slight growth inhibitory effect
- effect on HRPC proliferation ([1]; approximately 0.5, 1, 5, 8 μg/ml, 5% FBS): increased HRPC proliferation in a dose responsive manner

Molecule: XMP.664: BPI-derived peptide, SEQ ID NO: 5 (KLFRAQAK; XMP.664; listed as Homo sapiens)
- effect on HRPC growth ([1]; 10 μg/ml and higher, 5% FBS): slight growth inhibitory effect
- effect on HRPC proliferation ([1]; 10 μg/ml, 10% FBS): increased HRPC proliferation
- concentration of maximum HRPC proliferation ([1]; 5% FBS): approximately 5 μg/ml
- effect on HRPC proliferation ([1]; above 10 μg/ml, 10% FBS): inhibited proliferation
- effect on HRPC proliferation ([1]; approximately 0.5, 1, 5 μg/ml, 5% FBS): increased HRPC proliferation in a dose responsive manner

Molecule: XMP.768: BPI protein product, SEQ ID NO: 14 (KLFRAQAK; XMP.768; listed as Homo sapiens)
- HRPC proliferation [1]: enhanced the proliferation of HRPC

Molecule: XMP.851: BPI protein product, SEQ ID NO: 15 (KLFRAQA; XMP.851; listed as Homo sapiens)
- HRPC proliferation [1]: enhanced the proliferation of HRPC

Molecule: VEGF [reference compound]
- increase of DNA content ([2]; VEGF alone at 25 ng/ml): 3 to 5 fold and 3 to 4 fold

Molecule: XMP.728: BPI-derived peptide, SEQ ID NO: 6 (KLFKAQAKAKG; XMP.728; listed as Homo sapiens)
- effect on HRPC proliferation ([1]; 10% FBS): to lesser extent
- effect on HRPC proliferation ([1]; only at approximately 5 μg/ml, 5% FBS): increased HRPC proliferation

Molecule: XMP.365: BPI protein product, SEQ ID NO: 11 (KWLIQLFHKK; XMP.365; listed as Homo sapiens)
- toxicity on HRPC [1]: some toxicities

Molecule: XMP.676: BPI protein product, SEQ ID NO: 13 (KAVIQVVAKK; XMP.676; listed as Homo sapiens)
- HRPC proliferation [1]: enhanced the proliferation of HRPC

Molecule: XMP.711: BPI protein product, SEQ ID NO: 7 (KLARK; XMP.711; listed as Homo sapiens)
- HRPC proliferation [1]: little or no proliferation

Molecule: XMP.718: BPI protein product, SEQ ID NO: 10 (KLFRKA; XMP.718; listed as Homo sapiens)
- toxicity on HRPC [1]: some toxicities

Molecule: XMP.861: BPI protein product, SEQ ID NO: 9 (KLFRA; XMP.861; listed as Homo sapiens)
- HRPC proliferation [1]: little or no proliferation

Molecule: XMP.629: BPI protein product, SEQ ID NO: 12 (KLFRAQAKA; XMP.629; listed as Homo sapiens)
- HRPC proliferation [1]: enhanced the proliferation of HRPC

- time of maximum MAP kinase phosphorylation after addition [4]: 15 min
- maximum MAP kinase phosphorylation compared with 20% FBS ([4]; 15 minutes): nearly equaled the effect of 20% FBS
B1: rBPI21: recombinant N-terminal BPI analog, amino acids 1 to approximately 193 or 199, cysteine 132 substituted with alanine (protein, UniProt P17213 32-224, looked up, variant C132A)
chain: VNPGVVVRISQKGLDYASQQGTAALQKELKRIKIPDYSDSFKIKHLGKGHYSFYSMDIREFQLPSSQISMVPNVGLKFSISNANIKISGKWKAQKRFLKMSGNFDLSIEGMSISADLKLGSNPTSGKPTITASSCSSHINSVHVHISKSKVGWLIQLFHKKIESALRNKMNSQVCEKVTNSVSSELQPYFQTL
- effect on DNA content ([2]; 5 μg/ml compound, with and without VEGF): did not have a significant effect
- effect on DNA content (VEGF-dependent growth) ([2]; VEGF 25 ng/ml plus 25 μg/ml compound): did not have a significant effect
- effect on DNA content (VEGF-dependent growth) ([2]; VEGF 25 ng/ml plus 75 μg/ml compound): decreased significantly the DNA content; also recorded: prevented VEGF-dependent growth
- effect on total DNA content (growth) ([2]; compound alone without VEGF, 25 or 75 μg/ml): did not have a significant effect
- stimulation of proliferation ([3]; 75 μg/mL, 5, 10 or 15% FBS): 3 fold
- increase of DNA above basal level ([3]; 75 μg/ml, 5% FBS): 5 fold
- maximum growth compared with 20% FBS ([3]; 75 μg/ml, 5% FBS): almost equaled the growth effect of 20% FBS
- growth compared with 20% FBS ([3]; 75 μg/ml, 15% FBS): increased the growth greater then 20% FBS
- effect on DNA content ([3]; 5, 25, 75 μg/ml, 5% FBS): increased DNA content in a dose responsive manner
- total number of cells per well ([3]; 5, 25, 75 μg/ml, 5% FBS): increased in a dose responsive manner
- effect on growth ([3]; 5, 25 and 75 μg/ml, 10% FBS): induced the growth of pericyte
- growth compared with 20% FBS ([3]; 25 and 75 μg/ml, 10% FBS): appeared to improve growth above that of 20% FBS
- effect on MAP kinase phosphorylation ([4]; 1 to 60 minutes): increased MAP kinase phosphorylation over time
- HRPC proliferation [1]: little or no proliferation
- effect on RPEC growth [5]: had no effect
